Measurements from patent US11528909B2, “Method of controlling nematodes in agricultural crops” (priority 2020, dated 2022).

Columns and labels:
[1] = test system: soybean cyst nematode J2s; assay: Soybean cyst nematode J2 treatment in Petri dish (cuticle covering, molting, death); type: in vivo; details: for MEAN SCN Covered Cuticle / MEAN SCN Dead J2s: ten freshly hatched J2s per dish, three replicates
Excerpt: Different developmental stages of soybean cyst nematode were targeted for treatment in soil. Soybean cyst nematode has an egg stage, four juvenile stages (samples J1 to J4), adult male and female stages. From J1 to adult development, during each development stage, the nematode undergoes a molt, that is, a shedding of the outside cuticle and forming a new cuticle.
Ten freshly hatched J2s were removed from pure culture and added to three different concentrations (0.5 weight %, […], and 0.12 weight % of Composition solution in a […] Petri dish containing DI water. Composition is (CH3O)3Si(CH2)3N^+ C18H37(CH3)2 Cl^−.
Observations were made over time under an inverted microscope and compound microscope and for both soybean cyst nematode in Composition and also in just DI water which were replicated three times.

[2] = test system: soybean cyst nematode J2s; assay: as above; type: in vivo; details: 0.25% Composition in DI water; ten freshly hatched J2s per dish, three replicates

CCCCCCCCCCCCCCCCCC[N+](C)(C)CCC[Si](OC)(OC)OC.[Cl-] [Composition, 3-(trimethoxysilyl)-propyldimethyloctadecyl ammonium chloride]
MEAN SCN Covered Cuticle ([1]; 0.12% Composition in DI water): 5.3
MEAN SCN Dead J2s ([1]; 0.12% Composition in DI water): 6.66
MEAN SCN Covered Cuticle ([1]; 0.5% Composition in DI water): 5.16
MEAN SCN Dead J2s ([1]; 0.5% Composition in DI water): 8.00
Microscopic observation of J2s after one day ([1]; all concentrations, after one day): accumulates on the cuticle of J2s
Microscopic observation of J2s on the second day ([1]; all concentrations, second day): J2s shed the cuticle
Statistical effect on soybean cyst nematode J2s (covered cuticles and dead nematodes versus treatment) ([1]; all tested concentrations): significantly affects the soybean cyst nematode J2s
Overall effect on the nematode in vitro ([1]; in vitro): cuticle disruption and therefore accelerated molting of the nematode in vitro and ultimate death of the nematodes
MEAN SCN Covered Cuticle [2]: 5.16
MEAN SCN Dead J2s [2]: 7.66
